Source: ChEMBL document CHEMBL1124865, “Synthesis and biological evaluation of a series of parenteral 3'-quaternary ammonium cephalosporins” (J Med Chem, 1990)
Values after ≈ are worked out from the molar mass of the structure shown.

Key:
Type in all cases: functional
[1] = system: Escherichia coli; experiment: Antibacterial activity against Escherichia coli TEM; conditions: Escherichia coli; read-out: MIC
[2] = system: Klebsiella pneumoniae; experiment: Antibacterial activity against Klebsiella pneumoniae X26; conditions: Klebsiella pneumoniae; read-out: MIC
[3] = system: Staphylococcus aureus; experiment: Antibacterial activity against penicillin G susceptible Staphylococcus aureus; conditions: Staphylococcus aureus; read-out: MIC
[4] = system: Enterobacter cloacae; experiment: Antibacterial activity against Enterobacter cloacae 265A; conditions: Enterobacter cloacae; read-out: MIC
[5] = system: Serratia marcescens; experiment: Antibacterial activity against Serratia marcescens SE3; conditions: Serratia marcescens; read-out: MIC
[6] = system: Enterobacter cloacae; experiment: Antibacterial activity against Enterobacter cloacae EB5; conditions: Enterobacter cloacae; read-out: MIC
[7] = system: Staphylococcus aureus; experiment: Antibacterial activity against penicillin G resistance Staphylococcus aureus; conditions: Staphylococcus aureus; read-out: MIC
[8] = system: Pseudomonas aeruginosa; experiment: Antibacterial activity against Pseudomonas aeruginosa X528; conditions: Pseudomonas aeruginosa; read-out: MIC
[9] = system: Escherichia coli; experiment: Antibacterial activity against Escherichia coli EC14; conditions: Escherichia coli; read-out: MIC
[10] = system: Streptococcus pneumoniae; experiment: Antibacterial activity against Streptococcus pneumoniae; conditions: Streptococcus pneumoniae; read-out: MIC
[11] = system: Streptococcus pyogenes; experiment: Antibacterial activity against Streptococcus pyogenes; conditions: Streptococcus pyogenes; read-out: MIC
[12] = system: Enterococcus faecium; experiment: Antibacterial activity against Enterococcus faecium; conditions: Enterococcus faecium; read-out: MIC
[13] = system: Pseudomonas aeruginosa; experiment: Antibacterial activity against Pseudomonas aeruginosa PS18; conditions: Pseudomonas aeruginosa; read-out: MIC
[14] = system: Klebsiella pneumoniae; experiment: microbe, parasite or virus in culture; conditions: Klebsiella pneumoniae; read-out: MIC
Description: Antibacterial activity against Klebsiella pneumoniae 1082E

SMILES | MIC [1] | MIC [2] | MIC [3] | MIC [4] | MIC [5] | MIC [6] | MIC [7] | MIC [8] | MIC [9] | MIC [10] | MIC [11] | MIC [12] | MIC [13] | MIC [14]
C=Cc1sc[n+](CC2=C(C(=O)[O-])N3C(=O)[C@@H](NC(=O)/C(=N\OC)c4csc(N)n4)[C@H]3SC2)c1C | 0.03 µg/mL (≈ 0.0576 µM) | 0.06 µg/mL (≈ 0.115 µM) | 2 µg/mL (≈ 3.84 µM) | 4 µg/mL (≈ 7.68 µM) | 0.25 µg/mL (≈ 0.48 µM) | 0.25 µg/mL (≈ 0.48 µM) | 4 µg/mL (≈ 7.68 µM) | 16 µg/mL (≈ 30.7 µM) | 0.06 µg/mL (≈ 0.115 µM) | 0.06 µg/mL (≈ 0.115 µM) | 0.03 µg/mL (≈ 0.0576 µM) | 32 µg/mL (≈ 61.5 µM) | 32 µg/mL (≈ 61.5 µM) | 4 µg/mL (≈ 7.68 µM)
CCC(C)Nc1nc2cc[n+](CC3=C(C(=O)[O-])N4C(=O)[C@@H](NC(=O)/C(=N\OC)c5csc(N)n5)[C@H]4SC3)cc2s1 (stereo partly drawn) | 0.015 µg/mL (≈ 0.0249 µM) | 0.008 µg/mL (≈ 0.0133 µM) | 0.5 µg/mL (≈ 0.83 µM) | 2 µg/mL (≈ 3.32 µM) | 0.5 µg/mL (≈ 0.83 µM) | 0.25 µg/mL (≈ 0.415 µM) | 0.5 µg/mL (≈ 0.83 µM) | 16 µg/mL (≈ 26.5 µM) | 0.06 µg/mL (≈ 0.0995 µM) | 0.008 µg/mL (≈ 0.0133 µM) | 0.008 µg/mL (≈ 0.0133 µM) | 128 µg/mL (≈ 212 µM) | 128 µg/mL (≈ 212 µM) | 2 µg/mL (≈ 3.32 µM)
CO/N=C(\C(=O)N[C@@H]1C(=O)N2C(C(=O)[O-])=C(C[n+]3cc(C)c4ccccc4c3)CS[C@H]12)c1csc(N)n1 | 0.03 µg/mL (≈ 0.0557 µM) | 0.015 µg/mL (≈ 0.0278 µM) | 1 µg/mL (≈ 1.86 µM) | 2 µg/mL (≈ 3.71 µM) | 0.25 µg/mL (≈ 0.464 µM) | 0.25 µg/mL (≈ 0.464 µM) | 2 µg/mL (≈ 3.71 µM) | 4 µg/mL (≈ 7.43 µM) | 0.06 µg/mL (≈ 0.111 µM) | < 0.008 µg/mL | < 0.008 µg/mL | > 128 µg/mL | 16 µg/mL (≈ 29.7 µM) | 8 µg/mL (≈ 14.9 µM)
CO/N=C(\C(=O)N[C@@H]1C(=O)N2C(C(=O)[O-])=C(C[n+]3ccc4scc(C(=O)O)c4c3)CS[C@H]12)c1csc(N)n1 | 0.06 µg/mL (≈ 0.104 µM) | 0.015 µg/mL (≈ 0.0261 µM) | 2 µg/mL (≈ 3.48 µM) | 32 µg/mL (≈ 55.7 µM) | 0.03 µg/mL (≈ 0.0522 µM) | 0.125 µg/mL (≈ 0.218 µM) | 16 µg/mL (≈ 27.8 µM) | 4 µg/mL (≈ 6.96 µM) | 0.015 µg/mL (≈ 0.0261 µM) | 0.015 µg/mL (≈ 0.0261 µM) | 0.03 µg/mL (≈ 0.0522 µM) | > 128 µg/mL | 16 µg/mL (≈ 27.8 µM) | 4 µg/mL (≈ 6.96 µM)
CO/N=C(\C(=O)N[C@@H]1C(=O)N2C(C(=O)[O-])=C(C[n+]3ccc4scnc4c3)CS[C@H]12)c1csc(N)n1 |  | 0.015 µg/mL (≈ 0.0282 µM) | 1 µg/mL (≈ 1.88 µM) | 8 µg/mL (≈ 15 µM) |  |  | 8 µg/mL (≈ 15 µM) | 1 µg/mL (≈ 1.88 µM) | 0.015 µg/mL (≈ 0.0282 µM) | 0.015 µg/mL (≈ 0.0282 µM) | 0.015 µg/mL (≈ 0.0282 µM) |  | 4 µg/mL (≈ 7.52 µM) | 4 µg/mL (≈ 7.52 µM)
CCc1nc2c[n+](CC3=C(C(=O)[O-])N4C(=O)[C@@H](NC(=O)/C(=N\OC)c5csc(N)n5)[C@H]4SC3)ccc2s1 | 0.015 µg/mL (≈ 0.0268 µM) | 0.008 µg/mL (≈ 0.0143 µM) | 1 µg/mL (≈ 1.79 µM) | 4 µg/mL (≈ 7.15 µM) |  |  | 4 µg/mL (≈ 7.15 µM) | 4 µg/mL (≈ 7.15 µM) | 0.015 µg/mL (≈ 0.0268 µM) | 0.008 µg/mL (≈ 0.0143 µM) | 0.008 µg/mL (≈ 0.0143 µM) | 128 µg/mL (≈ 229 µM) | 16 µg/mL (≈ 28.6 µM) | 2 µg/mL (≈ 3.57 µM)
CO/N=C(\C(=O)N[C@@H]1C(=O)N2C(C(=O)[O-])=C(C[n+]3csc(CCOC=O)c3C)CS[C@H]12)c1csc(N)n1 | 0.03 µg/mL (≈ 0.0529 µM) | 0.015 µg/mL (≈ 0.0265 µM) | 1 µg/mL (≈ 1.76 µM) | 2 µg/mL (≈ 3.53 µM) | 0.06 µg/mL (≈ 0.106 µM) | 0.06 µg/mL (≈ 0.106 µM) | 2 µg/mL (≈ 3.53 µM) | 8 µg/mL (≈ 14.1 µM) | 0.03 µg/mL (≈ 0.0529 µM) | 0.015 µg/mL (≈ 0.0265 µM) | 0.015 µg/mL (≈ 0.0265 µM) | 16 µg/mL (≈ 28.2 µM) | 16 µg/mL (≈ 28.2 µM) | 4 µg/mL (≈ 7.06 µM)
CO/N=C(\C(=O)N[C@@H]1C(=O)N2C(C(=O)[O-])=C(C[n+]3csc4c3CCCC4)CS[C@H]12)c1csc(N)n1 | 0.03 µg/mL (≈ 0.0561 µM) | 0.03 µg/mL (≈ 0.0561 µM) | 1 µg/mL (≈ 1.87 µM) | 1 µg/mL (≈ 1.87 µM) | 0.125 µg/mL (≈ 0.234 µM) | 0.125 µg/mL (≈ 0.234 µM) | 2 µg/mL (≈ 3.74 µM) | 4 µg/mL (≈ 7.48 µM) | 0.06 µg/mL (≈ 0.112 µM) | 0.03 µg/mL (≈ 0.0561 µM) | 0.03 µg/mL (≈ 0.0561 µM) | 16 µg/mL (≈ 29.9 µM) | 16 µg/mL (≈ 29.9 µM) | 2 µg/mL (≈ 3.74 µM)
CO/N=C(\C(=O)N[C@@H]1C(=O)N2C(C(=O)[O-])=C(C[n+]3ccc4cncnc4c3)CS[C@H]12)c1csc(N)n1 | 0.125 µg/mL (≈ 0.237 µM) | 0.125 µg/mL (≈ 0.237 µM) | 4 µg/mL (≈ 7.6 µM) | 16 µg/mL (≈ 30.4 µM) | 1 µg/mL (≈ 1.9 µM) | 1 µg/mL (≈ 1.9 µM) | 32 µg/mL (≈ 60.8 µM) | 32 µg/mL (≈ 60.8 µM) | 0.25 µg/mL (≈ 0.475 µM) | 0.03 µg/mL (≈ 0.057 µM) | 0.06 µg/mL (≈ 0.114 µM) | 128 µg/mL (≈ 243 µM) | 64 µg/mL (≈ 122 µM) | 16 µg/mL (≈ 30.4 µM)
CO/N=C(\C(=O)N[C@@H]1C(=O)N2C(C(=O)[O-])=C(C[n+]3cccc4cc[nH]c43)CS[C@H]12)c1csc(N)n1 | 0.125 µg/mL (≈ 0.243 µM) | 0.06 µg/mL (≈ 0.117 µM) | 1 µg/mL (≈ 1.95 µM) | 32 µg/mL (≈ 62.3 µM) | 0.5 µg/mL (≈ 0.974 µM) | 2 µg/mL (≈ 3.89 µM) | 8 µg/mL (≈ 15.6 µM) | 32 µg/mL (≈ 62.3 µM) | 0.5 µg/mL (≈ 0.974 µM) | 0.015 µg/mL (≈ 0.0292 µM) | < 0.008 µg/mL | > 128 µg/mL | 64 µg/mL (≈ 125 µM) | 64 µg/mL (≈ 125 µM)
CO/N=C(\C(=O)N[C@@H]1C(=O)N2C(C(=O)[O-])=C(C[n+]3ccc4ccoc4c3)CS[C@H]12)c1csc(N)n1 | 0.015 µg/mL (≈ 0.0292 µM) | 0.015 µg/mL (≈ 0.0292 µM) | 1 µg/mL (≈ 1.94 µM) | 8 µg/mL (≈ 15.5 µM) | 0.03 µg/mL (≈ 0.0583 µM) | 0.06 µg/mL (≈ 0.117 µM) | 8 µg/mL (≈ 15.5 µM) | 2 µg/mL (≈ 3.89 µM) | 0.015 µg/mL (≈ 0.0292 µM) | 0.015 µg/mL (≈ 0.0292 µM) | < 0.008 µg/mL | > 128 µg/mL | 8 µg/mL (≈ 15.5 µM) | 4 µg/mL (≈ 7.77 µM)
